This is an account of results in patent US20250288515A1, “METHOD AND COMPOSITION FOR TREATING LUNG DISEASES” (MannKind Corporation, priority 2022, published 2025).

The nature of the data set: Pharmacokinetic study in rats, pulmonary insufflation versus intravenous injection. In kind it is in vivo. To be noted: male Sprague Dawley rats, single dose 0.8 mg/kg, samples 10-240 minutes; FIG. 5. The method, then:
Pharmacokinetic studies in rats with Compound I crystalline composite (XC) dry powders-Insufflation studies were performed in rats to deliver doses of dry powders of Compound I, a protein kinase antagonist. The study was performed to determine the pharmacokinetics profile of compound I dry powders made by the process as described above following pulmonary insufflation, or intravenous injection of a single dose of the composition administered in solution to male Sprague Dawley (Charles River Laboratories) adult rats, weighing between 200 g and 250 g at the time of the study. Dry powder comprising 22.1 wt % actual drug content were used and tested at 1 mg/ml in solution to deliver a dose of 0.8 mg/kg to 18 rats in each study group. Rats acclimatized and anesthetized prior to experimentation. Lung and blood samples were taken from the rats at 10, 20, 30, 120, and 240 minutes, post drug administration.

Turning to `Cc1cccc(-n2ncc(C)c2-c2cc3cnccc3s2)n1` [compound I, 2 [4-methyl-1-(6-methylpyridin-2yl)-1H-pyrazol-5-yl]thieno-[3,2 c]pyridine], the “Lung content of compound I after insufflation versus IV injection” value is listed as “higher content of compound I was detected in rat lung after insufflation versus IV injection”.
